Test results taken from EP2790511B1 (Merck Sharp & Dohme Corp., priority 2011, dated 2013).
Read-outs that look alike come from different tables or passages of the source.

Target: T1, hROMK (hKir1.1) (Homo sapiens, UniProt P48048)
T1 construct: expressed in transfected cells
T1 sequence (P48048 1-391): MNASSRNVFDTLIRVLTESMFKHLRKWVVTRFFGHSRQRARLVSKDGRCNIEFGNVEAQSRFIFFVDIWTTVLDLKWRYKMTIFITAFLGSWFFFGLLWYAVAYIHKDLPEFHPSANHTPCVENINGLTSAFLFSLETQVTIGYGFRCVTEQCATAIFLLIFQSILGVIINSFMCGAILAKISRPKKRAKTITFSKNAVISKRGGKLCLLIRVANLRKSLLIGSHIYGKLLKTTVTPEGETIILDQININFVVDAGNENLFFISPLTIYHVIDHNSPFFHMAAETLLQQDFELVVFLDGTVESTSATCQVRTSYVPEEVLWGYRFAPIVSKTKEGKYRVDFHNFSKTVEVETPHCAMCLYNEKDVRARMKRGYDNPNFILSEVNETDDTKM
Assay: Thallium Flux Assay
Assay type: cell-based
Outline: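 HEK293 cells stably expressing hROMK, loaded with FluxOR dye 90 min at ambient temperature, then compound 30 min with 0.3 mM ouabain in probenecid buffer pH 7.4.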

[1] = HEK293 cells stably expressing hROMK (hKir1.1), FLIPR-Tetra, read-out: Thallium Flux IC50

SMILES	IC50 [1]	IC50 (Thallium Flux IC50)
Cc1c([C@H]2CN3CCN(C(=O)Cc4ccc(-n5cnnn5)nc4)C[C@H]3CO2)ccc2nonc12 [Example 176, (3S,9aS)-3-(4-methyl-2,1,3-benzoxadiazol-5-yl)-8-{[6-(1H-tetrazol-1-yl)pyridin-3-yl]acetyl}octahydropyrazino[2,1-c][1,4]oxazine]	200 nM	
Cc1c([C@@H]2CN3CCN(C(=O)Cc4ccc(-n5cnnn5)nc4)C[C@@H]3CO2)ccc(F)c1C#N [Example 102, 6-fluoro-2-methyl-3-[(3R,9aR)-8-{[6-(1H-tetrazol-1-yl)pyridin-3-yl]acetyl}octahydropyrazino[2,1-c][1,4]oxazin-3-yl]benzonitrile]		150 nM
O=C1OCc2c1ccc([C@H]1CN3CCN(C(=O)Cc4ccc(-n5cnnn5)nc4)C[C@H]3CO1)c2Cl [Example 47, 4-chloro-5-[(3S,9aS)-8-{[6-(1H-tetrazol-1-yl)pyridin-3-yl]acetyl}octahydropyrazino[2,1-c][1,4]oxazin-3-yl]-2-benzofuran-1(3H)-one]		90 nM
Cc1c([C@@H]2CN3CCN(C(=O)Nc4ccc(-n5cnnn5)nc4)C[C@@H]3CO2)ccc(F)c1C#N [Example 199, (3R,9aR)-3-(3-cyano-4-fluoro-2-methylphenyl)-N-[6-(1H-tetrazol-1-yl)pyridin-3-yl]hexahydropyrazino[2,1-c][1,4]oxazine-8(1H)-carboxamide]	140 nM	
N#Cc1c(F)cc([C@@H]2CN3CCN(C(=O)Cc4ccc(-n5cnnn5)nc4)C[C@@H]3CO2)cc1F [Example 107, 2,6-difluoro-4-[(3R,9aR)-8-{[6-(1H-tetrazol-1-yl)pyridin-3-yl]acetyl}octahydropyrazino[2,1-c][1,4]oxazin-3-yl]benzonitrile]	170 nM	
Cc1c([C@H]2CN3CCN(C(=O)Cc4cnc(-n5cnnn5)nc4)C[C@@H]3CO2)ccc(F)c1C#N [Example 9, 6-fluoro-2-methyl-3-[(3S,9aR)-8-{[2-(1H-tetrazol-1-yl)pyrimidin-5-yl]acetyl}octahydropyrazino[2,1-c][1,4]oxazin-3-yl]benzonitrile]		180 nM
Cc1nc(-n2cnnn2)nc(C)c1CC(=O)N1CCN2C[C@@H](c3ccc(F)c(C#N)c3C)OC[C@H]2C1 [Example 152, 3-[(3R,9aR)-8-{[4,6-dimethyl-2-(1H-tetrazol-1-yl)pyrimidin-5-yl]acetyl}octahydropyrazino[2,1-c][1,4]oxazin-3-yl]-6-fluoro-2-methylbenzonitrile]	200 nM	
Cc1c(C2CN3CCN(C(=O)Cc4cnc(-n5cnnn5)nc4)CC3CCO2)ccc2c1COC2=O (single isomer, unassigned) [Example 165, 4-methyl-5-(2-{[2-(1H-tetrazol-1-yl)pyrimidin-5-yl]acetyl}octahydro-2H-pyrazino[1,2-d][1,4]oxazepin-7-yl)-2-benzofuran-1(3H)-one]	210 nM	
COc1cc([C@@H]2CN3CCN(C(=O)Cc4cnc(-n5cnnn5)cc4C)C[C@@H]3CO2)ccc1C#N [Example 45, 2-methoxy-4-[(3R,9aR)-8-{[4-methyl-6-(1H-tetrazol-1-vl)pvridin-3-yl]acetyl}octahydropyrazino[2,1-c][1,4]oxazin-3-yl]benzonitrile]	250 nM	
N#Cc1c(F)ccc([C@@H]2CN3CCN(C(=O)Cc4cnc(-n5cnnn5)nc4)C[C@@H]3CO2)c1Cl [Example 125, 2-chloro-6-fluoro-3-[(3R,9aR)-8-{[2-(1H-tetrazol-1-yl)pyrimidin-5-yl]acetyl}octahydropyrazino[2,1-c][1,4]oxazin-3-yl]benzonitrile]		60 nM
Cc1cc2c(cc1[C@@H]1CN3CCN(C(=O)Cc4ccc(-n5cnnn5)nc4)C[C@H]3CO1)COC2=O [Example 72, 6-methyl-5-[(3R,9aS)-8-{[6-(1H-tetrazol-1-yl)pyridin-3-yl]acetyl}octahydropyrazino[2,1-c][1,4]oxazin-3-yl]-2-benzofuran-1(3H)-one]	750 nM	
